Entries after “also recorded” stand apart in the source; their conditions may differ. Read-outs that look alike come from different tables or passages of the source.
Tests used:
[1] = molecular target: Bla (Escherichia coli, UniProt P62593); type: biochemical; conditions: CC1 versus analog without inserted double bond
[2] = test system: Bla in live E. coli; assay: Detection of Bla activity in living E. coli; type: cell-based; conditions: E. coli with ampicillin resistant plasmid, LB media
[3] = molecular target: T1, TEM-1 Bla (Escherichia coli, UniProt P62593); type: biochemical, E. coli; conditions: for hydrolysis by TEM-1 bla: in words
T1 sequence (P62593 24-286 limits assumed): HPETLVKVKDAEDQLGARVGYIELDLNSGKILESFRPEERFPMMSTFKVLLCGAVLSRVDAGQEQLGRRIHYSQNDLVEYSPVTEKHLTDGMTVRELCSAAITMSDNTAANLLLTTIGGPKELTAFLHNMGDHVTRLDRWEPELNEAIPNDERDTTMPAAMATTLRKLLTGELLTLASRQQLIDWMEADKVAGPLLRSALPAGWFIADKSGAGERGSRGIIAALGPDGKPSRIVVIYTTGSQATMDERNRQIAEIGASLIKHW

[4] = molecular target: T2, Mtb BlaC (Mycobacterium tuberculosis, UniProt P9WKD3); assay: Hydrolysis kinetics of coumarin-based lactam probes by Mtb BlaC (fluorescence of released 7-hydroxycoumarin); type: biochemical
T2 sequence (P9WKD3 35-307): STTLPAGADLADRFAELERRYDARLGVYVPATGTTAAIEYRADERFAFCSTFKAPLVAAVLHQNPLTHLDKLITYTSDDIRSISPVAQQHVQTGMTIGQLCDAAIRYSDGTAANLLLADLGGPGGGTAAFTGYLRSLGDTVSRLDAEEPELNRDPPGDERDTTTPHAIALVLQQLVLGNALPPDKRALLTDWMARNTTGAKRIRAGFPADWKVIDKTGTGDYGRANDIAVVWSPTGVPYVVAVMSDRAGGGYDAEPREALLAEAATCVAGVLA

[5] = test system: Bacillus Calmette-Guerin; type: cell-based, Mycobacterium bovis; conditions: 2 ng/μl rifampicin or 0.2 ng/μl INH, sputum, CDG-OMe, 24 hour
[6] = test system: CCN1CCN(C(=O)N[C@@H](C(=O)N[C@@H]2C(=O)N3C(C(=O)O)=C(CSc4nnnn4C)CS[C@H]23)c2ccc(O)cc2)C(=O)C1=O; assay: purified protein, by the assay type
[7] = molecular target: T2, Mtb BlaC; type: biochemical; conditions: for enzyme preference Mtb BlaC versus TEM-1 Bla: in words
[8] = molecular target: T1, TEM-1 Bla; conditions: cefoperazone versus CNIR5

Bla, sequence (P62593 24-286 limits assumed): as the sequence (P62593 24-286 limits assumed) above

With `O=C(Cc1ccccc1)N[C@@H]1C(=O)N2C(C(=O)O)=C(/C=C\COc3ccc4ccc(=O)oc4c3)CS[C@H]12` [CC1] the “increase in the catalytic efficiency by the inserted double bond” value [1] was roughly 5 fold.

In the case of `CCCC(=O)Oc1cc2oc(=O)c(C(=O)NCC(=O)N[C@@H]3C(=O)N4C(C(=O)OCOC(C)=O)=C(CSc5ccc6c(c5)C(=O)OC65c6ccc(OC(C)=O)cc6Oc6cc(OC(C)=O)ccc65)CS[C@H]34)cc2cc1Cl` [CCF2/AM], the “detection of Bla in live E. coli” value [2] is reported as “not detected”.

`CCO[C@@]1(NC(=O)Cc2ccccc2)C(=O)N2C(C(=O)O)=C(COc3ccc4ccc(=O)oc4c3)CS[C@@H]21` [CDC-OEt] was tested, and the “hydrolysis by TEM-1 bla” value [3] was “so slow that cannot be determined”.

Work on `O=C(Cc1ccccc1)N[C@@H]1C(=O)N2C(C(=O)O)=C(COc3ccc4ccc(=O)oc4c3)C[S+]([O-])[C@H]12` (some centres unmarked) [CDC-2] yielded a kcat ([4]; blaC) of 0.51 s⁻¹ and a kcat ([3]; TEM-1 bla) of 7 s⁻¹.

In the case of `NNC(=O)c1ccncc1` [isoniazide], the “fluorescence of BCG with drug over time” value [5] is reported as “effectively no increase in fluorescence”.

`CO[C@@]1(NC(=O)Cc2ccccc2)C(=O)N2C(C(=O)O)=C(COc3ccc4ccc(=O)oc4c3)CS[C@@H]21` [CDC-OMe] was tested, and the “kcat/Km for blaC larger than for TEM-1 bla” value [4] was 1,400 fold.

Compound TEM-1 Bla (Escherichia coli) has a Km ([6]; other: TEM-1 Bla) of 262 µM, a kcat ([6]; other: TEM-1 Bla) of 0.26 s⁻¹ and a kcat/Km ([6]; other: TEM-1 Bla) of 1000 M⁻¹ s⁻¹.

For `CO[C@@]1(NC(C)=O)C(=O)N2C(C(=O)O)=C(COc3ccc4ccc(=O)oc4c3)CS[C@@H]21` [4-64], the “hydrolysis by TEM-1 bla” value [3] was “so slow that cannot be determined”.

“Mtb BlaC (Mycobacterium tuberculosis H37Rv)” showed a Km [6] of 76 µM, a kcat [6] of 2.01 s⁻¹ and a kcat/Km [6] of 26000 M⁻¹ s⁻¹.

In the case of `O=C(Cc1ccccc1)N[C@@H]1C(=O)N2C(C(=O)O)=C(COc3ccc4ccc(=O)oc4c3)CS[C@H]12` [CDC-1], the “enzyme preference Mtb BlaC versus TEM-1 Bla” value ([4]; in words) is reported as “TEM-1 Bla-preferred”.

In the case of `CO[C@@]1(NC(=O)Cc2cccs2)C(=O)N2C(C(=O)O)=C(COC(N)=O)CS[C@@H]21` [cefoxitin], the “enzyme preference Mtb BlaC versus TEM-1 Bla” value [7] is reported as “better kinetics with the Mtb BlaC than TEM-1”.

For `CO/N=C(\C(=O)N[C@@H]1C(=O)N2C(C(=O)O)=C(COC(C)=O)CS[C@H]12)c1csc(N)n1` [cefotaxime], the “enzyme preference Mtb BlaC versus TEM-1 Bla” value [7] was “better kinetics with the Mtb BlaC than TEM-1”.

`CCN1CCN(C(=O)N[C@@H](C(=O)N[C@@H]2C(=O)N3C(C(=O)O)=C(CSc4nnnn4C)CS[C@H]23)c2ccc(O)cc2)C(=O)C1=O` [cefoperazone] was tested, and the “faster kinetics with the Mtb enzyme than the TEM-1 enzyme” value [7] was 10-100 fold, the “enzyme preference Mtb BlaC versus TEM-1 Bla” value [7] was “preferred substrate for Mtb BlaC as compared to TEM-1 Bla; also recorded: better kinetics with the Mtb BlaC than TEM-1” and the “kcat/KM for TEM-1 Bla smaller than that of CNIR5” value [8] was 100 fold.

Reference: patent US9441261B2, “Use of bacterial beta-lactamase for in vitro diagnostics and in vivo imaging, diagnostics and therapeutics” (priority 2008, dated 2016)
